Test results reported in US11464770B2, “Anticancer pharmaceutical composition” (NATIONAL CANCER CENTER, priority 2016, dated 2022).
Like-named read-outs stand apart in the source and are kept apart here.

Key:
[1] = system: prostate cancer cell lines (e.g. DU145/TXR); assay: Cell based assay, cell viability (CellTiter-Glo), prostate cancer cell lines; conditions: Homo sapiens, 72 hours treatment, final concentration 0 to 2 μM
Description: (§1) Commercially available bladder cancer, prostate cancer, lung cancer, breast cancer, blood cancer, pancreatic cancer, colorectal cancer, brain cancer, neuroblastoma, melanoma, liver cancer, cervical carcinoma, ovarian cancer, renal cancer, and papilloma cell lines were each treated with trypsin-EDTA and cultured, followed by being seeded in each well of a 96 well plate. After 24 hours of treatment at constant temperature, the respective cells were treated with the candidate compound so that a final concentration became 0 to 2 μM. The treated cells were additionally cultured for 72 hours, and cell viability was measured by using an ATP detection method (CellTiter-Glo® Luminescent Cell Viability Assay, Promega).

renal cancer cell lines = assay: Cell based assay, cell viability (CellTiter-Glo), renal cancer cell lines; conditions: Homo sapiens; ACHN cells
Description: as §1

[2] = CWR22 cells, read-out: IC50, prostate cancer cell line CWR22
[3] = DU-145, DU145/TXR cells, read-out: IC50, prostate cancer cell line DU145/TXR
[4] = DU-145, DU145 cells, read-out: IC50, prostate cancer cell line DU145
[5] = LNcap cells, read-out: IC50, prostate cancer cell line LNcap
[6] = PC-3 cells, read-out: IC50, prostate cancer cell line PC-3

IC50 [1, 2] | IC50 [1, 3] | IC50 [1, 4] | IC50 [1, 5] | IC50 [1, 6] | IC50 (renal cancer cell lines) | Compound
> 2 µM | 1.81 µM | > 2 µM | > 2 µM | > 2 µM | > 2 µM | CC(=O)c1c([S+]([O-])Cc2ccc(Cl)cc2)[nH]c2c(Br)ccc(Cl)c2c1=O (stereo not drawn) [Compound 11, 3-acetyl-8-bromo-5-chloro-2-((4-chlorobenzyl)sulfinyl)quinolin-4(1H)-one]
> 2 µM | > 2 µM | > 2 µM | > 2 µM | > 2 µM | > 2 µM | CC(=O)c1c(Sc2ccccc2)[nH]c2c(Br)ccc(Cl)c2c1=O [Compound 12, 3-acetyl-8-bromo-5-chloro-2-(phenylthio)quinolin-4(1H)-one]
> 2 µM | > 2 µM | > 2 µM | > 2 µM | – | > 2 µM | CC(=O)c1c([S+]([O-])c2ccccc2)[nH]c2c(Br)ccc(Cl)c2c1=O (stereo not drawn) [Compound 13, 3-acetyl-8-bromo-5-chloro-2-(phenylsulfinyl)quinolin-4(1H)-one]
> 2 µM | > 2 µM | > 2 µM | > 2 µM | > 2 µM | > 2 µM | COc1ccccc1Sc1[nH]c2c(Br)ccc(Cl)c2c(=O)c1C(C)=O [Compound 14, 3-acetyl-8-bromo-5-chloro-2-((2-methoxyphenyl)thio)quinolin-4(1H)-one]
> 2 µM | 1.88 µM | > 2 µM | > 2 µM | – | > 2 µM | COc1ccccc1[S+]([O-])c1[nH]c2c(Br)ccc(Cl)c2c(=O)c1C(C)=O (stereo not drawn) [Compound 15, 3-acetyl-8-bromo-5-chloro-2-((2-methoxyphenyl)sulfinyl)quinolin-4(1H)-one]
> 2 µM | > 2 µM | > 2 µM | > 2 µM | > 2 µM | > 2 µM | CC(=O)c1c(Sc2ccc(Br)cc2)[nH]c2c(Br)ccc(Cl)c2c1=O [Compound 16, 3-acetyl-8-bromo-2-((4-bromophenyl)thio)-5-chloroquinolin-4(1H)-one]
> 2 µM | > 2 µM | > 2 µM | > 2 µM | – | > 2 µM | CC(=O)c1c([S+]([O-])c2ccc(Br)cc2)[nH]c2c(Br)ccc(Cl)c2c1=O (stereo not drawn) [Compound 17, 3-acetyl-8-bromo-2-((4-bromophenyl)sulfinyl)-5-chloroquinolin-4(1H)-one]
> 2 µM | > 2 µM | > 2 µM | > 2 µM | > 2 µM | > 2 µM | CSc1c(C(C)=O)c(=O)c2c(Cl)ccc(Br)c2n1C(C)=O [Compound 18, 1,1′-(8-bromo-5-chloro-2-(methylthio)-4-oxoquinoline-1,3(4H)-diyl)bis(ethan-1-one)]
> 2 µM | > 2 µM | > 2 µM | > 2 µM | > 2 µM | > 2 µM | CC(=O)c1c([S+](C)[O-])n(C(C)=O)c2c(Br)ccc(Cl)c2c1=O (stereo not drawn) [Compound 19, 1,1′-(8-bromo-5-chloro-2-(methylsulfinyl)-4-oxoquinoline-1,3(4H)-diyl)bis(ethan-1-one)]
> 2 µM | > 2 µM | > 2 µM | > 2 µM | > 2 µM | > 2 µM | CC(=O)c1c([S+]([O-])Cc2ccccc2)n(C(=O)c2ccc(Br)cc2)c2c(Br)ccc(Cl)c2c1=O (stereo not drawn) [Compound 20, 3-acetyl-2-(benzylsulfinyl)-8-bromo-1-(4-bromobenzoyl)-5-chloroquinolin-4(1H)-one]
> 2 µM | > 2 µM | > 2 µM | > 2 µM | > 2 µM | > 2 µM | CC(=O)c1c(S(C)(=O)=O)n(C(=O)c2ccc(Br)cc2)c2c(Br)ccc(Cl)c2c1=O [Compound 21, 3-acetyl-8-bromo-1-(4-bromobenzoyl)-5-chloro-2-(methylsulfonyl)quinolin-4(1H)-one]
> 2 µM | > 2 µM | > 2 µM | > 2 µM | > 2 µM | > 2 µM | CC(=O)c1c([S+](C)[O-])n(Cc2ccc(F)c(Cl)c2)c2c(Br)ccc(Cl)c2c1=O (stereo not drawn) [Compound 22, 3-acetyl-8-bromo-5-chloro-1-(3-chloro-4-fluorobenzyl)-2-(methylsulfinyl)quinolin-4(1H)-one]
> 2 µM | > 2 µM | > 2 µM | > 2 µM | > 2 µM | > 2 µM | CC(=O)c1c(SCc2ccccc2)n(C(=O)c2ccc(Br)cc2)c2c(Br)ccc(Cl)c2c1=O [Compound 23, 3-acetyl-2-(benzylthio)-8-bromo-1-(4-bromobenzoyl)-5-chloroquinolin-4(1H)-one]
> 2 µM | > 2 µM | > 2 µM | > 2 µM | > 2 µM | > 2 µM | CC(=O)c1c(SC(C)C)[nH]c2c(Br)ccc(Cl)c2c1=O [Compound 24, 3-acetyl-8-bromo-5-chloro-2-(isopropylthio)quinolin-4(1H)-one]
> 2 µM | > 2 µM | > 2 µM | > 2 µM | > 2 µM | > 2 µM | CC(=O)c1c([S+]([O-])C(C)C)[nH]c2c(Br)ccc(Cl)c2c1=O (stereo not drawn) [Compound 25, 3-acetyl-8-bromo-5-chloro-2-(isopropylsulfinyl)quinolin-4(1H)-one]

More lines, now with the values behind:

Compound | IC50 [1, 2] | IC50 [1, 3] | IC50 [1, 4] | IC50 [1, 5] | IC50 [1, 6] | IC50 (renal cancer cell lines)
CC(=O)c1c([S+](C)[O-])[nH]c2c(Br)ccc(Cl)c2c1=O (stereo not drawn) [Compound 1, 3-acetyl-8-bromo-5-chloro-2-(methylsulfinyl)quinolin-4(1H)-one] | 1.83 µM | 1.65 µM | 1.9 µM | > 2 µM | 1.64 µM | > 2 µM
CSc1[nH]c2c(Br)ccc(Cl)c2c(=O)c1C(C)=O [Compound 2, 3-acetyl-8-bromo-5-chloro-2-(methylthio)quinolin-4(1H)-one] | > 2 µM | > 2 µM | > 2 µM | > 2 µM | > 2 µM | > 2 µM
CC(=O)c1c(SCc2ccccc2)[nH]c2c(Br)ccc(Cl)c2c1=O [Compound 3, 3-acetyl-2-(benzylthio)-8-bromo-5-chloroquinolin-4(1H)-one] | > 2 µM | > 2 µM | > 2 µM | > 2 µM | > 2 µM | > 2 µM
CC(=O)c1c([S+]([O-])Cc2ccccc2)nc2c(Br)ccc(Cl)c2c1O (stereo not drawn) [Compound 4] | 1.67 µM | 1.19 µM | 1.41 µM | > 2 µM | 1.52 µM | > 2 µM
CSc1c(C(C)=O)c(=O)c2c(Cl)ccc(Br)c2n1C [Compound 5, 3-acetyl-8-bromo-5-chloro-1-methyl-2-(methylthio)quinolin-4(1H)-one] | > 2 µM | > 2 µM | > 2 µM | > 2 µM | > 2 µM | > 2 µM
CC(=O)c1c([S+](C)[O-])[nH]c2c(Cl)ccc(Cl)c2c1=O (stereo not drawn) [Compound 6, 3-acetyl-5,8-dichloro-2-(methylsulfinyl)quinolin-4(1H)-one] | 1.99 µM | 1.54 µM | 1.8 µM | > 2 µM | 1.68 µM | > 2 µM
CSc1c(C(C)=O)c(=O)c2cc(F)ccc2n1C [Compound 7, 3-acetyl-6-fluoro-1-methyl-2-(methylthio)quinolin-4(1H)-one] | > 2 µM | > 2 µM | > 2 µM | > 2 µM | > 2 µM | > 2 µM
CSc1[nH]c2ccc(F)cc2c(=O)c1C(C)=O [Compound 8, 1-(6-fluoro-4-hydroxy-2-(methylthio)quinolin-3-yl)ethan-1-one] | > 2 µM | > 2 µM | > 2 µM | > 2 µM | > 2 µM | > 2 µM
CC(=O)c1c([S+](C)[O-])n(C(=O)c2ccc(Br)cc2)c2c(Br)ccc(Cl)c2c1=O (stereo not drawn) [Compound 9, 3-acetyl-8-bromo-1-(4-bromobenzoyl)-5-chloro-2-(methylsulfinyl)quinolin-4(1H)-one] | 1.6 µM | 1.35 µM | 1.59 µM | > 2 µM | 1.47 µM | > 2 µM
CC(=O)c1c(SCc2ccc(Cl)cc2)[nH]c2c(Br)ccc(Cl)c2c1=O [Compound 10, 3-acetyl-8-bromo-5-chloro-2-((4-chlorobenzyl)thio)quinolin-4(1H)-one] | > 2 µM | > 2 µM | > 2 µM | > 2 µM | > 2 µM | > 2 µM
